The text below walks through data of patent publication US20020177580A1, “Means and method for hormonal contraception” (priority 2001, published 2002).

Entries after “also recorded” stand apart in the source; their conditions may differ.

For data set [1] the following is noted: hormone replacement therapy with 17beta-estradiol dydrogesterone (Grisar et al., 1999); cited from earlier work.
Another data set concerns ovulation. The settings on record: humans; reported by Claassen et al., Acta Endocrinologica (1967); cited from earlier work.
The test system of a further data set is women. Nature of the data set: Clinical study with dydrogesterone as progestogen-only preparation (Example 5). The data set is classed as in vivo, human. Particulars: 20 mg dydrogesterone once a day, uninterruptedly for 4 months. The text has this: Women participating in the study described in these examples are all selected on the basis that they are users of ‘high’ dose monophasic ethinyl estradiol-containing combined oral contraceptives. The reasons for applying this selection criterion is that there is a dose-relationship between follicular development and ethinyl estradiol whether given alone or in combination with a progestogen, i.e. less follicular development in the presence of the higher dose. Participation of the females involved in the study starts at a moment of (almost) complete suppression of follicular development. This condition is not met if a female has her first day of bleeding in a natural cycle, after a tablet-free interval, or immediately after a low-dose combined oral contraceptive.
A clinical study with dydrogesterone as a progestogen-only preparation is conducted in 8 women who were selected on the basis of the criteria mentioned in Example 1. The 8 women receive a 20 mg dosage of dydrogesterone once a day, uninterruptedly during a period of 4 months.

For data set [2] the following is noted: compared with commercially used synthetic progestogens; cited from earlier work.

As for `CC(=O)[C@H]1CC[C@H]2[C@@H]3C=CC4=CC(=O)CC[C@@]4(C)[C@@H]3CC[C@]12C` [dydrogesterone, 9β,10α-pregna-4,6-diene-3,20-dione], the “adverse effects on blood pressure” value in data set [1] was “no adverse effects on blood pressure”. Further, the inhibition of ovulation entry in the data set with ovulation is listed as “cannot be used to inhibit ovulation; also recorded: does not inhibit ovulation in humans”. For the same compound, in the data set with women, the irregular bleeding result is “some unpredictable irregular bleeding”, the menses flow entry is “reduction of the usual menses flow” and the ovulation inhibition entry is on record as “Ovulation is inhibited”. Further, the “estrogenic, glucocorticoid, anabolic or androgenic properties” value in data set [2] was “does not exhibit estrogenic, glucocorticoid, anabolic or androgenic properties”.
